Assay in all cases: relative viability (nuclei count vs DMSO), 5 days (fraction); higher = more cells survive
Compound in assay [1]: C[C@]1(c2nc3c(C(N)=O)cccc3[nH]2)CCCN1 [Veliparib] + CS(=O)(=O)CCNCc1ccc(-c2ccc3ncnc(Nc4ccc(OCc5cccc(F)c5)c(Cl)c4)c3c2)o1 [Lapatinib] (partner 2 µM)
Summed up: (§1)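 Lung cancer cell lines, seeded in 1536-well plates, were treated the following day by pin tool with a single drug or with five library-drug doses (not always all listed) in √10 steps on top of a fixed anchor-drug dose. Cells were fixed and nuclei stained in one step after 5 days, and nuclei were counted. Relative viability is the nuclei count for treated wells divided by that for vehicle wells, reported as medians of duplicate plates.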

Compound in assay [2]: COC1=CC=C(C=C1)CN2C=CC3=C2C=C(C=C3)C(=O)NO + CS(=O)(=O)N1CCN(Cc2cc3nc(-c4cccc5[nH]ncc45)nc(N4CCOCC4)c3s2)CC1 [Pictilisib] (partner 1 µM)
Summed up: as §1

Compound in assay [3]: C[C@]1(c2nc3c(C(N)=O)cccc3[nH]2)CCCN1 [Veliparib] + O=C(CCCCCCC(=O)Nc1ccccc1)NO [Vorinostat] (partner 1 µM)
Summed up: as §1

Compound in assay [4]: C[C@]1(c2nc3c(C(N)=O)cccc3[nH]2)CCCN1 [Veliparib] + COc1cc2c(Oc3ccc(NC(=O)C4(C(=O)Nc5ccc(F)cc5)CC4)cc3F)ccnc2cc1OCCCN1CCOCC1 [Foretinib] (partner 0.25 µM)
The procedure, abridged: as §1

Regarding SW 1573, the relative viability in assay [1] (first compound 0.02 µM) was found to be 1.04; in assay [1] (first compound 0.06325 µM), 1.02; in assay [1] (first compound 0.2 µM), 0.929; in assay [1] (first compound 0.6325 µM), 1.05; in assay [1] (first compound 2 µM) it was 1.04; in assay [2] (first compound 0.253 µM) it was 0.478. The relative viability in assay [2] (first compound 0.8 µM) came out at 0.554; in assay [2] (first compound 2.53 µM), 0.532; in assay [2] (first compound 8 µM) it was 0.486; in assay [3] (first compound 0.06325 µM), 0.596; in assay [3] (first compound 0.2 µM) it was 0.67; in assay [3] (first compound 0.6325 µM), 0.495. In addition, the relative viability in assay [3] (first compound 2 µM) came out at 0.869; in assay [4] (first compound 0.02 µM), 0.881; in assay [4] (first compound 0.06325 µM) it was 0.771; in assay [4] (first compound 0.2 µM), 0.99; in assay [4] (first compound 0.6325 µM) it was 0.828; in assay [4] (first compound 2 µM) it was 0.941.

For the origin of these results see the supplement of paper PMC10307832.
